Results taken from ChEMBL document CHEMBL1201862, “PubChem BioAssay data set” (2004).
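Assay format: 96-well plates, 48-hour exposure. At the GI50, growth is halved.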 Activity calls are given as the source filed them. Cut-off read from the data, not from the text of the source: active = GI50 up to about 1.1 µM and inactive = higher.

Columns and labels:
Assay in all cases: NCI anticancer screen, dose series, 48 h
[1] = system: EKVX
[2] = system: SK-MEL-28
[3] = system: DU-145
[4] = system: MDA-MB-435
[5] = system: SK-MEL-2
[6] = system: MCF7
[7] = system: HCT-116
[8] = system: SNB-75
[9] = system: SF-268
[10] = system: IGROV-1
[11] = system: LOX IMVI
[12] = system: SN12C
[13] = system: SNB-19
[14] = system: HCC 2998
[15] = system: KM12
[16] = system: CAKI-1
[17] = system: A498
[18] = system: OVCAR-8
[19] = system: TK-10

Measured: GI50

O=C1OC(c2ccc(O)c(-c3ccccc3)c2)(c2ccc(O)c(-c3ccccc3)c2)c2c(Cl)c(Cl)c(Cl)c(Cl)c21
inactive: [1] > 100 µM | [2] > 100 µM | [3] > 100 µM | [4] > 100 µM | [5] > 100 µM | [6] > 100 µM | [7] > 100 µM | [8] > 100 µM | [9] > 100 µM | [10] > 100 µM | [11] > 100 µM | [12] > 100 µM | [13] > 100 µM | [14] > 100 µM | [15] > 100 µM | [16] > 100 µM | [17] > 100 µM | [18] > 100 µM | [19] > 100 µM

NNC(=O)CNc1cccc(Br)c1
inactive: [1] > 100 µM | [2] > 100 µM | [3] > 100 µM | [4] > 100 µM | [5] > 100 µM | [6] > 100 µM | [7] > 100 µM | [8] > 100 µM | [9] > 100 µM | [10] > 100 µM | [11] > 100 µM | [12] > 100 µM | [13] > 100 µM | [14] > 100 µM | [15] > 100 µM | [16] > 100 µM | [17] > 100 µM | [18] > 100 µM | [19] > 100 µM

COc1ccc2c(C)cc(C)nc2n1
inactive: [1] > 100 µM | [2] > 100 µM | [3] > 100 µM | [4] > 100 µM | [5] > 100 µM | [6] > 100 µM | [7] > 100 µM | [8] > 100 µM | [10] > 100 µM | [11] > 100 µM | [12] > 100 µM | [13] > 100 µM | [14] > 100 µM | [15] > 100 µM | [16] > 100 µM | [17] > 100 µM | [18] > 100 µM | [19] > 100 µM

COc1cc(C2c3cc4c(cc3OC(N3CCCCC3)C2C)OCO4)cc(OC)c1O (stereo unspecified)
inactive: [1] 26.1 µM | [2] 9.89 µM | [3] 19.5 µM | [4] 2.21 µM | [5] 7.73 µM | [6] 5.33 µM | [7] 4.59 µM | [8] 2.96 µM | [9] 13.8 µM | [10] 9.98 µM | [11] 9.77 µM | [12] 11.4 µM | [13] 16.3 µM | [14] 12.2 µM | [15] 5.89 µM | [16] 12 µM | [17] 10.9 µM | [18] 13.4 µM | [19] 16.4 µM

Cc1ccsc1/C=N/Nc1ccc2ccccc2n1
inactive: [1] 20.3 µM | [2] 80.4 µM | [3] 48.9 µM | [4] 56.5 µM | [5] 25.2 µM | [6] 11.4 µM | [7] 28.1 µM | [8] 32.9 µM | [9] 32.1 µM | [10] 8.26 µM | [11] 24.2 µM | [12] > 100 µM | [13] 39.4 µM | [14] 24.1 µM | [15] 32.1 µM | [16] 17.5 µM | [17] 7.76 µM | [18] 41.4 µM | [19] 19.9 µM

OCCN1CCN(c2nc(N3CCCC3)c3nc(Cl)c(NCc4ccccc4)nc3n2)CC1
inactive: [1] 11.3 µM | [2] 4.09 µM | [3] 8.15 µM | [4] 3.98 µM | [5] 6.92 µM | [6] 4.31 µM | [7] 5.6 µM | [8] 3.27 µM | [9] 8.85 µM | [10] 8.43 µM | [11] 5.4 µM | [12] 10.4 µM | [13] 7.62 µM | [14] 1.93 µM | [15] 4.97 µM | [16] 9.44 µM | [17] 12.5 µM | [18] 8.77 µM | [19] 6.85 µM

CCN(CC)c1ccc2c(c1)OC(=O)C(c1nnc(-c3ccc([N+](=O)[O-])cc3)o1)C2 (stereo unspecified)
inactive: [1] 10.2 µM | [2] > 100 µM | [3] > 100 µM | [4] > 100 µM | [5] > 100 µM | [6] > 100 µM | [7] > 100 µM | [8] > 100 µM | [9] 90.4 µM | [10] > 100 µM | [11] > 100 µM | [13] > 100 µM | [14] > 100 µM | [15] > 100 µM | [16] > 100 µM | [17] > 100 µM | [18] > 100 µM | [19] > 100 µM
